This passage reports IC50 results from US7723358B2, “Aroyl-O-piperidine derivatives for the treatment of diabetes-related problems” (Merck Patent GmbH, priority 2004, dated 2010).

pIC50: −log10 of the molar value.

Test [1] deals with apo B secretion in HepG2 cells. Put plainly: Secretion of apo B in the HepG2 human cell line (sandwich-ELISA). The format is cell-based. The note with it: 24 hours incubation, culture supernatant, read-out: IC50, concentration that produces a 50% inhibition of apo B secretion in the HepG2 cells. Here is the method:
Analysis of the Secretion of apo B in the HepG2 Human Cell Line:
The activity of a compound according to the invention can be evaluated by measuring the inhibition of apo B secretion in HepG2 cells.
The HepG2 cells (ECACC—No. 85011430) are used as model in the study of the in vitro hepatic secretion of lipoproteins (Dixon J. and Ginsberg H., J., Lipid. Res., 1993, 34, 167-179).
The HepG2 cells are cultured in Dulbecco's modified Eagle's medium comprising 10% foetal calf serum (DMEM and FBS—Gibco) in 96-well plates under an atmosphere of 5% carbon dioxide for 24 hours (about 70% confluence).
The test compounds are dissolved at a concentration of 2 or 10 mM in dimethyl sulfoxide (DMSO). Serial dilutions (1:3.16) are made in DMSO and are added (1:200—Robot Multimek Beckman) to the growth medium (200 μL) and then finally incubated for 24 hours in the various wells containing the HepG2 cells.
The 24-hour culture supernatant diluted to 1:5 (phosphate-buffered saline:PBS comprising 1% bovine serum albumin) is tested according to a sandwich-ELISA method specific for human apo B.
The results are expressed in terms of IC50, i.e. the concentration that produces a 50% inhibition of apo B secretion in the HepG2 cells.
Background: In an ELISA, binding on a coated surface is turned into a signal by an enzyme label.

For test [2], the target named is T1, microsomal triglyceride transfer protein (MTP) (Mesocricetus auratus, UniProt P55158).
T1 construct: The supernatant comprising the soluble MTP is dialysed against Tris/HCl 150 mM; from tissue; host or cells: golden hamster liver microsomes, deoxycholate-solubilised supernatant, dialysed
T1 sequence (P55158 19-895): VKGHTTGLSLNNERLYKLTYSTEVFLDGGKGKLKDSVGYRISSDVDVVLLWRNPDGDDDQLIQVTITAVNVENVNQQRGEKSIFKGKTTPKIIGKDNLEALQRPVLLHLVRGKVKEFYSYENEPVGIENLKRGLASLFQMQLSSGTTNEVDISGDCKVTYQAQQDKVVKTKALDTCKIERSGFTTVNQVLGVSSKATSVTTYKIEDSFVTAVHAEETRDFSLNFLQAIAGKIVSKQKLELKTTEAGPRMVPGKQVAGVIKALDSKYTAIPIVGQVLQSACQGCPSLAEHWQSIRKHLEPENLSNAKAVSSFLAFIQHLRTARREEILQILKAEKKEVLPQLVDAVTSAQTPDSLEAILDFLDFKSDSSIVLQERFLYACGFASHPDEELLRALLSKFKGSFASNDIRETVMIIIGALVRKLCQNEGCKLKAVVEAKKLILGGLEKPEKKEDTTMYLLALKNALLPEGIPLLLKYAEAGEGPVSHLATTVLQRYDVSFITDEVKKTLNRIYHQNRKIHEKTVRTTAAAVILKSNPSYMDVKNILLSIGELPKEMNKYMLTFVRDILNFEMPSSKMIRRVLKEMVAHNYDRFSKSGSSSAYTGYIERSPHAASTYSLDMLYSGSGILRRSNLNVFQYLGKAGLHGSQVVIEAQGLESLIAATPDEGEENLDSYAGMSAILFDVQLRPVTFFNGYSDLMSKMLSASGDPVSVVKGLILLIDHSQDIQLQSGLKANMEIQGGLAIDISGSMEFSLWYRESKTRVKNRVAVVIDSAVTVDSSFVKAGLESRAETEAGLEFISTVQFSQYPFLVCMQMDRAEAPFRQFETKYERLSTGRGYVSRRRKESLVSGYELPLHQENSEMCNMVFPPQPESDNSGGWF
Nature of the test: Inhibition of MTP activity: transfer of [3H]-triolein from donor liposomes to biotinylated LDL, SPA. Conditions: MTP from golden hamster liver; incubation 18-24 hours at 37° C.; read-out: IC50, concentration that allows a 50% inhibition of MTP. The format is biochemical. An outline of the steps:
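Soluble MTP was extracted with deoxycholate from golden hamster liver microsomes. It was incubated with [3H]-triolein/phosphatidylcholine donor liposomes, biotinylated LDL acceptors and compound in DMSO in HEPES/NaCl/BSA buffer, pH 7.4, for 18-24 h at 37° C. Transfer was read with streptavidin SPA beads, and IC50 was taken as 50% inhibition of transfer.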

In the case of `Cc1cccc(C(=O)Nc2cccc(OC3CCN(C(=O)NCCc4ccccc4)CC3)c2)c1-c1ccc(OC(F)(F)F)cc1` [Example 40, 4-[3-[[[6-methyl-4′-(trifiuoromethoxy)[1,1′-biphenyl]-2-yl]carbonyl]amino]phenoxy]-N-(2-phenylethyl)-1-piperidinecarbox-amide], the pIC50 was 7.86 in test [1] and 7.16 in test [2].

For the molecule `Cc1cccc(C(=O)Nc2cccc(OC3CCN(C(=O)OCC(C)C)CC3)c2)c1-c1ccc(OC(F)(F)F)cc1` [Example 8, 2-methylpropyl 4-[3-[[[6-methyl-4′-(trifluoromethoxy)[1,1-biphenyl]-2-yl]carbonyl]amino]phenoxy]-1-piperidine-carboxylate], the figures for the pIC50 in test [1] and in test [2] were 7.60 and 7.26, respectively.

On to `CCCCCCNC(=O)N1CCC(Oc2cccc(NC(=O)c3cccc(C)c3-c3ccc(OC(F)(F)F)cc3)c2)CC1` [Example 41, N-hexyl-4-[3-[[[6-methyl-4′-(trifluorometh-oxy)[1,1′-biphenyl]-2-yl]carbonyl]amino]-phenoxy]-1-piperidinecarboxamide], for which the pIC50 was 7.48 in test [1] and 7.34 in test [2].

On to `CCNC(=O)N1CCC(Oc2cccc(NC(=O)c3cccc(C)c3-c3ccc(OC(F)(F)F)cc3)c2)CC1` [Example 12, N-ethyl-4-[3-[[[6-methyl-4′-(trifluoro-methoxy)[1,1′-biphenyl]-2-yl]carbonyl]-amino]phenoxy]-1-piperidinecarboxamide], for which the pIC50 in test [1] was 7.28; in test [2] it was 7.06.

Turning to `Cc1cccc(C(=O)Nc2cccc(OC3CCN(C(=O)OCc4ccccc4)CC3)c2)c1-c1ccc(OC(F)(F)F)cc1` [Example 7, phenylmethyl 4-[3-[[[6-methyl-4′-(trifluoro-methoxy)[1,1′-biphenyl]-2-yl]carbonyl]-amino]phenoxy]-1-piperidinecarboxylate], the pIC50 in test [1] is 7.77; in test [2] it was 7.34.

With `Cc1cccc(C(=O)Nc2cccc(OC3CCN(C(=O)Oc4ccc([N+](=O)[O-])cc4)CC3)c2)c1-c1ccc(OC(F)(F)F)cc1` [Example 9, 4-nitrophenyl 4-[3-[[[6-methyl-4′-(trifluoro-methoxy)[1,1′-biphenyl]-2-yl]carbonyl]-amino]phenoxy]-1-piperidinecarboxylate], the pIC50 is 8.10 in test [1] and 7.29 in test [2].

For `CCOC(=O)N1CCC(Oc2cccc(NC(=O)c3cccc(C)c3-c3ccc(OC(F)(F)F)cc3)c2)CC1` [Example 6, ethyl 4-[3-[[[6-methyl-4′-(trifluoromethoxy)-[1,1′-biphenyl]-2-yl]carbonyl]amino]-phenoxy]-1-piperidinecarboxylate], the pIC50 in test [1] is 8.40; in test [2], 7.32.

`COCCOC(=O)N1CCC(Oc2cccc(NC(=O)c3ccccc3-c3ccc(OC(F)(F)F)cc3)c2)CC1` [Example 74]: the pIC50 in test [1] is 7.08; in test [2] it was 6.96.

As to `Cc1cccc(C(=O)Nc2cccc(OC3CCN(S(C)(=O)=O)CC3)c2)c1-c1ccc(OC(F)(F)F)cc1` [Example 3, 6-methyl-N-[3-[[1-(methylsulfonyl)-4-piperidinyl]oxy]phenyl]-4′-(trifluoro-methoxy)[1,1′-biphenyl]-2-carboxamide], the pIC50 in test [1] is 7.97; in test [2] it was 7.31.

For `COc1ccc(NC(=O)N2CCC(Oc3cccc(NC(=O)c4cccc(C)c4-c4ccc(OC(F)(F)F)cc4)c3)CC2)cc1` [Example 26], the pIC50 was 7.12 in test [1] and 7.14 in test [2].

As to `Cc1cccc(C(=O)Nc2cccc(OC3CCN(S(=O)(=O)Cc4ccccc4)CC3)c2)c1-c1ccc(OC(F)(F)F)cc1` [Example 16], the pIC50 in test [1] was 7.80; in test [2], 7.37.

Take `COc1ccc(CNC(=O)N2CCC(Oc3cccc(NC(=O)c4cccc(C)c4-c4ccc(OC(F)(F)F)cc4)c3)CC2)cc1` [Example 52, N-[(4-methoxyphenyl)methyl]-4-[3-[[[6-methyl-4′-(trifluoromethoxy)[1,1′-biphenyl]-2-yl]carbonyl]amino]phenoxy]-1-piperidinecarboxamide]: the results for the pIC50 in test [1] and in test [2] were 7.18 and 6.71, respectively.

Consider `COC(=O)N1CCC(Oc2cccc(NC(=O)c3ccccc3-c3ccc(C(F)(F)F)cc3)c2)CC1` [Example 72, methyl 4-[3-[[[4′-(trifluoromethyl)[1,1′-biphenyl]-2-yl]carbonyl]amino]phenoxy]-1-piperidinecarboxylate], for which the pIC50 was 8.34 in test [1] and 7.37 in test [2].

Regarding `CC(=O)OCC(=O)N1CCC(Oc2cccc(NC(=O)c3cccc(C)c3-c3ccc(OC(F)(F)F)cc3)c2)CC1` [Example 102, N-[3-[[1-[2-(acetyloxy)acetyl]-4-piperidin-yl]oxy]phenyl]-6-methyl-4′-(trifluorometh-oxy)[1,1′-biphenyl]-2-carboxamide], the figures for the pIC50 in test [1] and in test [2] were 7.59 and 6.67, respectively.

On to `Cc1cccc(C(=O)Nc2cccc(OC3CCN(S(=O)(=O)C(C)C)CC3)c2)c1-c1ccc(OC(F)(F)F)cc1` [Example 14, 6-methyl-N-[3-[[1-[(1-methyl-ethyl)sulfonyl]-4-piperidinyl]oxy]phenyl]-4′-(trifluoromethoxy)[1,1′-biphenyl]-2-carboxamide], for which the figures for the pIC50 in test [1] and in test [2] were 7.20 and 6.94, respectively.

As for `C/C=C/C(=O)N1CCC(Oc2cccc(NC(=O)c3cccc(C)c3-c3ccc(OC(F)(F)F)cc3)c2)CC1` [Example 128, 6-methyl-N-[3-[[1-[(2E)-1-oxo-2-butenyl]-4-piperidinyl]oxy]phenyl]-4′-(trifluorometh-oxy)[1,1′-biphenyl]-2-carboxamide], the pIC50 in test [1] was 7.65; in test [2] it was 7.00.

As for `COc1ccc(C(=O)N2CCC(Oc3cccc(NC(=O)c4cccc(C)c4-c4ccc(OC(F)(F)F)cc4)c3)CC2)cc1OC` [Example 103], the values for the pIC50 in test [1] and in test [2] were 7.16 and 6.89, respectively.

Regarding `COC(=O)N1CCC(Oc2cccc(NC(=O)c3cccc(C)c3-c3ccc(OC(F)(F)F)cc3)c2)CC1` [Example 5, methyl 4-[3-[[[6-methyl-4′-(trifluoro-methoxy)[1,1′-biphenyl]-2-yl]carbonyl]-amino]phenoxy]-1-piperidinecarboxylate], the values for the pIC50 in test [1] and in test [2] were 9.10 and 7.35, respectively.

Regarding `COCCOC(=O)N1CCC(Oc2cccc(NC(=O)c3ccccc3-c3ccc(C(F)(F)F)cc3)c2)CC1` [Example 75, 2-methoxyethyl 4-[3-[[[4′-(trifluoromethyl)-[1,1′-biphenyl]-2-yl]carbonyl]amino]-phenoxy]-1 piperidinecarboxylate], the pIC50 in test [1] was 7.40; in test [2], 6.88.

For `CCCCOC(=O)CNC(=O)N1CCC(Oc2cccc(NC(=O)c3cccc(C)c3-c3ccc(OC(F)(F)F)cc3)c2)CC1` [Example 44, butyl N-[[4-[3-[[[6-methyl-4′-(trifluorometh-oxy)[1,1′-biphenyl]-2-yl]carbonyl]amino]-phenoxy]-1-piperidinyl]carbonyl]glycinate], the pIC50 in test [1] is 8.13; in test [2], 6.77.

Turning to `COCCOC(=O)N1CCC(Oc2cccc(NC(=O)c3cccc(C)c3-c3ccc(OC(F)(F)F)cc3)c2)CC1` [Example 73, 2-methoxyethyl 4-[3-[[[6-methyl-4′-(trifluoromethoxy)[1,1′-biphenyl]-2-yl]-carbonyl]amino]phenoxy]-1-piperidine-carboxylate], the pIC50 in test [1] is 8.80; in test [2], 7.48.
